Test results published in patent US20230048132A1, “CYCLIN-DEPENDENT KINASE INHIBITORS” (SPV THERAPEUTICS INC., priority 2018, published 2023).
pIC50: −log10 of the molar value. Where two headings read alike, the source gives them in different places.

Columns and labels:
Assay in all cases: CDK inhibition assay (microfluidic LabChip, IC50 format)
[1] = biological target: T1, CDK2-CYCLINA (Homo sapiens, UniProt P24941); type: biochemical; details: read-out: CDK2 CyclinA IC50
T1 construct: purchased Millipore

[2] = biological target: CDK7 CyclinH (Homo sapiens, UniProt P50613); type: biochemical
Sequence of CDK7 CyclinH (P50613 whole entry): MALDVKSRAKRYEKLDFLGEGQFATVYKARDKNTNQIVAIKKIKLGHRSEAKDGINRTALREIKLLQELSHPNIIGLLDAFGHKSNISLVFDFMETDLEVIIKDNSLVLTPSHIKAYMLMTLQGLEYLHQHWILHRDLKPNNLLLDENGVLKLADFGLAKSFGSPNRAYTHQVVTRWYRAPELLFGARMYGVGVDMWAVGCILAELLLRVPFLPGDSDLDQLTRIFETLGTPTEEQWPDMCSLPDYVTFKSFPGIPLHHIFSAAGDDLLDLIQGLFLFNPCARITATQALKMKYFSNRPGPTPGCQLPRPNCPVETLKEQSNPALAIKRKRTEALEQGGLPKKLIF
Sequence of CDK7 CyclinH (P51946 whole entry partner): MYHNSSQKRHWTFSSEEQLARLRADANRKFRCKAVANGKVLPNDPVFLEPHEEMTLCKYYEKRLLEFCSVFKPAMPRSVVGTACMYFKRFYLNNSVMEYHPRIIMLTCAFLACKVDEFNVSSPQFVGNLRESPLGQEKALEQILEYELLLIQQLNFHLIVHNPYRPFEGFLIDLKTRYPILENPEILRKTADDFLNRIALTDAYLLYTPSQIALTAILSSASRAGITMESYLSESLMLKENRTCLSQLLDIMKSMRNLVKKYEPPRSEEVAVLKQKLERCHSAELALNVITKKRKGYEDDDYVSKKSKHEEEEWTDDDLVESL
Sequence of CDK7 CyclinH (P51948 whole entry partner): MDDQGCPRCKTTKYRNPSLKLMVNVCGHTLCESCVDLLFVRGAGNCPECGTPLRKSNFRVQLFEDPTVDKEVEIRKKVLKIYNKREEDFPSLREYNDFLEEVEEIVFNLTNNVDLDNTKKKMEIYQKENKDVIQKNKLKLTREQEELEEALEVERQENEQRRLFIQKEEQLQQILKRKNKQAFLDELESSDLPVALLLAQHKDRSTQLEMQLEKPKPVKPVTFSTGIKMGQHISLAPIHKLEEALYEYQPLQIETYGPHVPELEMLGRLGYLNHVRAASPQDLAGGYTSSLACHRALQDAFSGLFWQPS

[3] = biological target: CDK4-CYCLIND1 (Homo sapiens, UniProt P11802); details: a second value in parentheses for some compounds
Sequence of CDK4-CYCLIND1 (P11802 whole entry): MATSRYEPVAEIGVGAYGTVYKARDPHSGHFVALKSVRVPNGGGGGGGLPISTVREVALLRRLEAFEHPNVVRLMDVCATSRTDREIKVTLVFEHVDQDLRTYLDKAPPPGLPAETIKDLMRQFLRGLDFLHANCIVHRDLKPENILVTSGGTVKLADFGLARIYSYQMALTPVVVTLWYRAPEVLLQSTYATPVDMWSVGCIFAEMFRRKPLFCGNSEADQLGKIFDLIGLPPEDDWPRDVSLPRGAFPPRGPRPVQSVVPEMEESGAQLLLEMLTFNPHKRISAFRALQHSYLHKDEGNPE
Sequence of CDK4-CYCLIND1 (P24385 whole entry partner): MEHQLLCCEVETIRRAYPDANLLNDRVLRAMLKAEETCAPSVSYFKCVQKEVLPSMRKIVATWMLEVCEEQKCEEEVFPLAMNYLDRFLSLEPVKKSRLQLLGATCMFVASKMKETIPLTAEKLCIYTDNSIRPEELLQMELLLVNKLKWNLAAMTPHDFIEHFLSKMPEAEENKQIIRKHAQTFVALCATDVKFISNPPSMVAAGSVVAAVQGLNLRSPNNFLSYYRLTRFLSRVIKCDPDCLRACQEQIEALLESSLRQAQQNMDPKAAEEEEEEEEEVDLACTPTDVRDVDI

[4] = biological target: CDK1/B (Homo sapiens, UniProt P06493); type: biochemical
Sequence of CDK1/B (P06493 whole entry, species assumed): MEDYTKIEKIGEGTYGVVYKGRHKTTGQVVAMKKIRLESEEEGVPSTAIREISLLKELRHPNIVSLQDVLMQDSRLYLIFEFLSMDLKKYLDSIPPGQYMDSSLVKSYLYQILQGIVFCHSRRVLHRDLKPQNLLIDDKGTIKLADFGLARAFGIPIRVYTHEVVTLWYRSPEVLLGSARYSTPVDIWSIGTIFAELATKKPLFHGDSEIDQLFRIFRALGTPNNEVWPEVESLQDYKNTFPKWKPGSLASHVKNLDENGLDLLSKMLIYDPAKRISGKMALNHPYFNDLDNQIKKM
Sequence of CDK1/B (P14635 whole entry partner, species assumed): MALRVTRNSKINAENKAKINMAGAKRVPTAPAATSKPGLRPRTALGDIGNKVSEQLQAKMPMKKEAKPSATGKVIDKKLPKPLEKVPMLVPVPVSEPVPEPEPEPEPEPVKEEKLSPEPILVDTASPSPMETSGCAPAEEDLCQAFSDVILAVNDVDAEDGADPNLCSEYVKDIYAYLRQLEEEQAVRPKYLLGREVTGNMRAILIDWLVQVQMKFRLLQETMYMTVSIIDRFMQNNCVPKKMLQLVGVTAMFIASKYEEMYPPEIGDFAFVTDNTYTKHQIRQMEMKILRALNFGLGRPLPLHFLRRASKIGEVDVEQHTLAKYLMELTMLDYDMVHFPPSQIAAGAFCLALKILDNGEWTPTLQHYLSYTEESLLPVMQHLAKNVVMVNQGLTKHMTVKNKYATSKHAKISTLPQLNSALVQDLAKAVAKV

[5] = biological target: T2, CDK9-CYCLINT1 (Homo sapiens, UniProt P50750); type: biochemical; details: read-out: CDK9 CyclinT1 IC50
T2 construct: purchased Carna
T2 sequence (P50750 whole entry): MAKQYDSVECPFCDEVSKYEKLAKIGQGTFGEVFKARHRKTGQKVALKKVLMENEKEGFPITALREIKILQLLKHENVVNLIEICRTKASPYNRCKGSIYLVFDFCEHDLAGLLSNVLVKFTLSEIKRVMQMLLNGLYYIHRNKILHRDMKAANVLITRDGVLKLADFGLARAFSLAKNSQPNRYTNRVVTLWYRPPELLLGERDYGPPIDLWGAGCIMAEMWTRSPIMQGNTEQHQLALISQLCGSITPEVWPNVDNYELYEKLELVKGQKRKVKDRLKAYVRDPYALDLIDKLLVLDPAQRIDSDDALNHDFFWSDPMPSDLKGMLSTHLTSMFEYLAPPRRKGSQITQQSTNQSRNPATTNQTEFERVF
T2 sequence (O60563 whole entry partner): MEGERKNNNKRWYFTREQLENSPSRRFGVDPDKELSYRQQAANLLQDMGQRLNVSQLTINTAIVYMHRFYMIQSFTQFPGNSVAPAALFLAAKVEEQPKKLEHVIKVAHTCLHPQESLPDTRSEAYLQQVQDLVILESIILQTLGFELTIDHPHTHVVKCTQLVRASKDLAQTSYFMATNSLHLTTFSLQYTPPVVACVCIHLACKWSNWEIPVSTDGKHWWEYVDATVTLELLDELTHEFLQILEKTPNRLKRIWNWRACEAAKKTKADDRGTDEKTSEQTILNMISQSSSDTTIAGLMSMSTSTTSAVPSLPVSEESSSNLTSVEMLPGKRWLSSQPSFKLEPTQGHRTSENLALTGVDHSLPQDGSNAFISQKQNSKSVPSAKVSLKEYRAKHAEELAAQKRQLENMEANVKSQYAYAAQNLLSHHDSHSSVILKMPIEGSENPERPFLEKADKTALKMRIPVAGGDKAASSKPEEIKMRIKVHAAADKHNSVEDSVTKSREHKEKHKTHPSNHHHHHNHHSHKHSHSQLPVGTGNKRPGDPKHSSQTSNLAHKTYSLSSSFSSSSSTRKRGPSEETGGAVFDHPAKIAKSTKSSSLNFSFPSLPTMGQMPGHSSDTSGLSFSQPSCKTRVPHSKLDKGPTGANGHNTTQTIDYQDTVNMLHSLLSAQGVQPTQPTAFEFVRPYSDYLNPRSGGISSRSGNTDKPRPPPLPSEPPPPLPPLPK

[6] = biological target: T3, CDK6-CYCLIND3 (Homo sapiens, UniProt Q00534); type: biochemical; details: Table 4b, lower part; read-out: CDK6 CyclinD3 IC50
T3 construct: purchased Carna
T3 sequence (Q00534 whole entry): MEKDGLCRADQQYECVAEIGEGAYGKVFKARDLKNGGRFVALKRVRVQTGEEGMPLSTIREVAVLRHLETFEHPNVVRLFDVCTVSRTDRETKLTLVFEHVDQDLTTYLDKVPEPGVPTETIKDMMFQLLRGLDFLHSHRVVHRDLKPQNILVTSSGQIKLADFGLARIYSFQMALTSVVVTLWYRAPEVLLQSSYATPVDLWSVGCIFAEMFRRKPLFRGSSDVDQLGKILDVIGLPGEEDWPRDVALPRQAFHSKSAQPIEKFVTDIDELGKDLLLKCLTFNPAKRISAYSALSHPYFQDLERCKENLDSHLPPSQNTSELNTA
T3 sequence (P30281 whole entry partner): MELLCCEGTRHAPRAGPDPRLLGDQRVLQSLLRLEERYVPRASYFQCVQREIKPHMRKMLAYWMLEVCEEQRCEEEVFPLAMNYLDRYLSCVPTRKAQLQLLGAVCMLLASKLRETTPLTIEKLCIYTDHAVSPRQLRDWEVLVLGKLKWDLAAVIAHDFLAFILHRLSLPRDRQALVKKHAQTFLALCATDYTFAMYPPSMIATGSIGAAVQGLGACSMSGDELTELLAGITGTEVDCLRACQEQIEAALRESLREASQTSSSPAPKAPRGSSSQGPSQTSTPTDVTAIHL

[7] = CDK4 CyclinD1 IC50, Table 4b, lower part

SMILES | pIC50 ([1]; Table 4a) | pIC50 ([2]; Table 4a) | pIC50 ([3]; CDK4 CyclinD1 IC50, Table 4a) | pIC50 ([4]; Table 4a) | pIC50 ([5]; Table 4a) | pIC50 ([1]; Table 4b, lower part) | pIC50 ([2]; Table 4b, lower part) | pIC50 [3, 7] | pIC50 ([4]; Table 4b, lower part) | pIC50 ([5]; Table 4b, lower part) | pIC50 [6]
CN1CCN(c2ccc(Nc3ncc4c(n3)N(C3CCCC3)C(=O)N([C@H]3CCNC3)C4)cc2)CC1 [Example D71, (S)-1-cyclopentyl-7-((4-(4-methylpiperazin-1-yl)phenyl)amino)-3-(pyrrolidin-3-yl)-3,4-dihydropyrimido[4,5-d]pyrimidin-2(1H)-one] | < 5.00 | < 5.00 | 5.71 | < 5.00 | < 5.00 |  |  |  |  |  | 
CN1CCN(c2ccc(Nc3ncc4c(n3)N(C3CCCC3)C(=O)N([C@@H]3CCNC3)C4)cc2)CC1 [Example D74, (R)-1-cyclopentyl-7-((4-(4-methylpiperazin-1-yl)phenyl)amino)-3-(pyrrolidin-3-yl)-3,4-dihydropyrimido[4,5-d]pyrimidin-2(1H)-one] | < 5.00 | < 5.00 | 5.56 | < 5.00 | < 5.00 |  |  |  |  |  | 
CN1CCN(c2ccc(Nc3ncc4c(n3)N(C3CCCC3)C(=O)N(c3ccccc3F)C4)cc2F)CC1 [Example D80, 1-cyclopentyl-7-((3-fluoro-4-(4-methylpiperazin-1-yl)phenyl)amino)-3-(2-fluorophenyl)-3,4-dihydropyrimido[4,5-d]pyrimidin-2(1H)-one] | 5.12 | < 5.00 | 8.46 | < 5.00 | < 5.00 |  |  |  |  |  | 
O=C1NCC[C@@]12Cc1cnc(N[C@H]3CC[C@H](NC4CCOCC4)CC3)nc1N(C1CCCC1)C2=O [Example D92, (S)-8-cyclopentyl-2-(((1r,4S)-4-((tetrahydro-2H-pyran-4-yl)amino)cyclohexyl)amino)-5,8-dihydro-7H-spiro[pyrido[2,3-d]pyrimidine-6,3′-pyrrolidine]-2′,7-dione] | 6.82 | 6.46 | 8.25 | 6.66 | > 8.49 |  |  |  |  |  | 
O=C1NCC[C@@]12Cc1cnc(N[C@H]3CC[C@H](NC4CCOCC4)CC3)nc1N(C13CC(C1)C3)C2=O [Example D93, (S)-8-(bicyclo[1.1.1]pentan-1-yl)-2-(((1r,4S)-4-((tetrahydro-2H-pyran-4-yl)amino)cyclohexyl)amino)-5,8-dihydro-7H-spiro[pyrido[2,3-d]pyrimidine-6,3′-pyrrolidine]-2′,7-dione] | 6.14 | 5.82 | 7.48 | 5.96 | 7.79 |  |  |  |  |  | 
O=C1NCC[C@@]12Cc1cnc(Nc3ccc(N4CCN(CCO)CC4)c(F)c3)nc1N(C1CCCC1)C2=O [Example D97, (S)-8-cyclopentyl-2-((3-fluoro-4-(4-(2-hydroxyethyl)piperazin-1-yl)phenyl)amino)-5,8-dihydro-7H-spiro[pyrido[2,3-d]pyrimidine-6,3′-pyrrolidine]-2′,7-dione] |  |  |  |  |  | 7.25 | 6.95 | > 8.49 | 6.65 | > 8.49 | 
O=C1NCC[C@@]12Cc1cnc(Nc3ccc(N4CCN(CCO)CC4)c(F)c3)nc1N(C13CC(C1)C3)C2=O [Example D99, (S)-8-(bicyclo[1.1.1]pentan-1-yl)-2-((3-fluoro-4-(4-(2-hydroxyethyl)piperazin-1-yl)phenyl)amino)-5,8-dihydro-7H-spiro[pyrido[2,3-d]pyrimidine-6,3′-pyrrolidine]-2′,7-dione] |  |  |  |  |  | 5.96 | 5.91 | 7.88 | 5.54 | 7.55 | 
CN1CC2(C1)CN(c1ccc(Nc3ncc4c(n3)N(C3CCCC3)C(=O)[C@]3(CCNC3=O)C4)cc1F)C2 [Example D101, (S)-8-cyclopentyl-2-((3-fluoro-4-(6-methyl-2,6-diazaspiro[3.3]heptan-2-yl)phenyl)amino)-5,8-dihydro-7H-spiro[pyrido[2,3-d]pyrimidine-6,3′-pyrrolidine]-2′,7-dione] |  |  |  |  |  | 7.43 | 6.79 | > 8.49 | 6.78 | > 8.49 | 
CC(C)N1CC2(CN(c3ccc(Nc4ncc5c(n4)N(C4CCCC4)C(=O)[C@]4(CCNC4=O)C5)cc3)C2)C1 [Example D102, (S)-8-cyclopentyl-2-((4-(6-isopropyl-2,6-diazaspiro[3.3]heptan-2-yl)phenyl)amino)-5,8-dihydro-7H-spiro[pyrido[2,3-d]pyrimidine-6,3′-pyrrolidine]-2′,7-dione] |  |  |  |  |  | 6.90 | 6.19 | > 8.49 | 6.33 | > 8.49 | 
CN1CCN(C2CCN(c3ccc(Nc4ncc5c(n4)N(C4CCCC4)C(=O)[C@]4(CCNC4=O)C5)cc3F)CC2)CC1 [Example D105, (S)-8-cyclopentyl-2-((3-fluoro-4-(4-(4-methylpiperazin-1-yl)piperidin-1-yl)phenyl)amino)-5,8-dihydro-7H-spiro[pyrido[2,3-d]pyrimidine-6,3′-pyrrolidine]-2′,7-dione] | 7.26 | 6.87 | > 8.49 | 6.76 | > 8.49 |  |  |  |  |  | 
CS(=O)(=O)c1ccc(Nc2ncc3c(n2)N(C2CCCC2)C(=O)[C@]2(CCNC2=O)C3)cc1 [Example D114, (S)-8-cyclopentyl-2-((4-(methylsulfonyl)phenyl)amino)-5,8-dihydro-7H-spiro[pyrido[2,3-d]pyrimidine-6,3′-pyrrolidine]-2′,7-dione] |  |  |  |  |  | > 8.49 | 5.78 | > 8.49 | 7.42 | > 8.49 | 
CC(C)c1ccc(Nc2ncc3c(n2)N(C2CCCC2)C(=O)[C@]2(CCNC2=O)C3)cc1 [Example D115, (S)-8-cyclopentyl-2-((4-isopropylphenyl)amino)-5,8-dihydro-7H-spiro[pyrido[2,3-d]pyrimidine-6,3′-pyrrolidine]-2′,7-dione] |  |  |  |  |  | 6.87 | < 5.00 |  | 6.25 | 8.04 | 
O=C1NCC[C@@]12Cc1cnc(Nc3ccc(OCCO)cc3)nc1N(C1CCCC1)C2=O [Example D116, (S)-8-cyclopentyl-2-((4-(2-hydroxyethoxy)phenyl)amino)-5,8-dihydro-7H-spiro[pyrido[2,3-d]pyrimidine-6,3′-pyrrolidine]-2′,7-dione] |  |  |  |  |  | 7.50 | 5.46 | > 8.49 | 6.63 | > 8.49 | 
CC(C)N1CCC(Nc2ncc3c(n2)N(C2CCCC2)C(=O)[C@]2(CCNC2=O)C3)CC1 [Example D125, (S)-8-cyclopentyl-2-((1-isopropylpiperidin-4-yl)amino)-5,8-dihydro-7H-spiro[pyrido[2,3-d]pyrimidine-6,3′-pyrrolidine]-2′,7-dione] |  |  |  |  |  | 5.94 | 6.25 |  | 5.94 | 7.69 | 
CC(C)c1ccc(Nc2ncc3c(n2)N(C2CCCC2)C(=O)[C@]2(CCNC2=O)C3)cc1F [Example D130, (S)-8-cyclopentyl-2-((3-fluoro-4-isopropylphenyl)amino)-5,8-dihydro-7H-spiro[pyrido[2,3-d]pyrimidine-6,3′-pyrrolidine]-2′,7-dione] |  |  |  |  |  | 6.62 | < 5.00 |  | 5.97 | 7.91 | 
CN1CCN(c2ccc(Nc3ncc4c(n3)N(C35CC(C3)C5)C(=O)[C@]3(CCNC3=O)C4)cc2)CC1 [Example D186, (S)-8-(bicyclo[1.1.1]pentan-1-yl)-2-((4-(4-methylpiperazin-1-yl)phenyl)amino)-5,8-dihydro-7H-spiro[pyrido[2,3-d]pyrimidine-6,3′-pyrrolidine]-2′,7-dione] |  |  |  |  |  | 5.83 | 5.63 | 7.86 |  | 7.21 | 7.41
CC(C)N1CCN(c2ccc(Nc3ncc4c(n3)N(C35CC(C3)C5)C(=O)[C@]3(CCNC3=O)C4)cc2)CC1 [Example D187, (S)-8-(bicyclo[1.1.1]pentan-1-yl)-2-((4-(4-isopropylpiperazin-1-yl)phenyl)amino)-5,8-dihydro-7H-spiro[pyrido[2,3-d]pyrimidine-6,3′-pyrrolidine]-2′,7-dione] |  |  |  |  |  | 5.86 | 5.77 | 7.84 |  | 7.22 | 7.47
CN1CCN(c2ccc(Nc3ncc4c(n3)N(C35CC(C3)C5)C(=O)[C@]3(CCNC3=O)C4)nc2)CC1 [Example D188, (S)-8-(bicyclo[1.1.1]pentan-1-yl)-2-((5-(4-methylpiperazin-1-yl)pyridin-2-yl)amino)-5,8-dihydro-7H-spiro[pyrido[2,3-d]pyrimidine-6,3′-pyrrolidine]-2′,7-dione] |  |  |  |  |  | < 4.00 | < 4.00 | 4.97 |  | < 4.00 | 4.66
CC(C)N1CCN(c2ccc(Nc3ncc4c(n3)N(C35CC(C3)C5)C(=O)[C@]3(CCNC3=O)C4)nc2)CC1 [Example D189, (S)-8-(bicyclo[1.1.1]pentan-1-yl)-2-((5-(4-isopropylpiperazin-1-yl)pyridin-2-yl)amino)-5,8-dihydro-7H-spiro[pyrido[2,3-d]pyrimidine-6,3′-pyrrolidine]-2′,7-dione] |  |  |  |  |  | < 4.00 | < 4.00 | 4.54 |  | 4.75 | 4.38
CCN1CCN(Cc2ccc(Nc3ncc4c(n3)N(C35CC(C3)C5)C(=O)[C@]3(CCNC3=O)C4)nc2)CC1 [Example D190, (S)-8-(bicyclo[1.1.1]pentan-1-yl)-2-((5-((4-ethylpiperazin-1-yl)methyl)pyridin-2-yl)amino)-5,8-dihydro-7H-spiro[pyrido[2,3-d]pyrimidine-6,3′-pyrrolidine]-2′,7-dione] |  |  |  |  |  | < 4.00 | < 4.00 | 4.94 |  | 4.66 | 4.47
